Results: patent publication US20140045823A1 (Neurocrine Biosciences, Inc., priority 2012, published 2014)

target: T1, human GPR119 (Homo sapiens, UniProt Q8TDV5); experiment: AlphaScreen cAMP assay in MIN6 cells stably transfected with human GPR119; format: cell-based; conditions: Min-6/hGPR119 cells, 45 min at room temperature
T1 construct: expression vector for human GPR119 cDNA (Acc. No. NP_848566); expressed in transfected cells; Min-6/hGPR119
T1 sequence (Q8TDV5 1-335): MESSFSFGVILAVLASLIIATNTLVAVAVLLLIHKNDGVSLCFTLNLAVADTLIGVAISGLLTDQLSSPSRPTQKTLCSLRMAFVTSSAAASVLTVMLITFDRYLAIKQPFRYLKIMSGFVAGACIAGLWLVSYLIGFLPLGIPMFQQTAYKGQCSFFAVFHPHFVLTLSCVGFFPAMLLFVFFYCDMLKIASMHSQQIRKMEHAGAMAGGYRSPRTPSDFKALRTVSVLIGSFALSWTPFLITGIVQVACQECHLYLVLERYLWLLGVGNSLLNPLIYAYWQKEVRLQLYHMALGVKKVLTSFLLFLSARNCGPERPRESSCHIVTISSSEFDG
Summary of the method: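 cAMP accumulation quantified by AlphaScreen after 45 min compound stimulation at about 20 °C. Stimulation buffer: pH 7.4 HEPES saline with 0.5 mM IBMX, 0.1% BSA, 1% DMSO final. Cells: MIN6 stably transfected with human GPR119, 10000/well, cultured 24 h beforehand.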

Row | SMILES | EC50 [nM]
1 | CC(C)(C)OC(=O)N1CCC(N(C(=O)c2cnc(-c3cccc(C#N)c3)nc2)C2CC2)CC1 [Example 75, 4-{[2-(3-Cyano-phenyl)-pyrimidine-5-carbonyl]-cyclopropyl-amino}-piperidine-1-carboxylic acid tert-butyl ester] | 170
2 | CCOc1ccc(-c2ncc(C(=O)N(C3CC3)C3CCN(C(=O)OC(C)(C)C)CC3)cn2)cc1 [Example 76, 4-{Cyclopropyl-[2-(4-ethoxy-phenyl)-pyrimidine-5-carbonyl]-amino}-piperidine-1-carboxylic acid tert-butyl ester] | 71
3 | CC(C)(C)OC(=O)N1CCC(N(C(=O)c2cnc(-c3ccc(OC(F)(F)F)cc3)nc2)C2CC2)CC1 [Example 77, 4-{Cyclopropyl-[2-(4-trifluoromethoxy-phenyl)-pyrimidine-5-carbonyl]-amino}-piperidine-1-carboxylic acid tert-butyl ester] | 55
4 | CC(C)(C)OC(=O)N1CCC(N(C(=O)c2cnc(-c3ccc(CC#N)cc3)nc2)C2CC2)CC1 [Example 78, 4-{[2-(4-Cyanomethyl-phenyl)-pyrimidine-5-carbonyl]-cyclopropyl-amino}-piperidine-1-carboxylic acid tert-butyl ester] | 9
5 | CC(C)(C)OC(=O)N1CCC(N(C(=O)c2cnc(-c3ccc(NS(C)(=O)=O)cc3)nc2)C2CC2)CC1 [Example 79, 4-{Cyclopropyl-[2-(4-methanesulfonylamino-phenyl)-pyrimidine-5-carbonyl]-amino}-piperidine-1-carboxylic acid tert-butyl ester] | 210
6 | CC(C)(C)OC(=O)N1CCC(N(C(=O)c2cnc(-c3ccc(S(C)(=O)=O)cc3)nc2)C2CC2)CC1 [Example 80, 4-{Cyclopropyl-[2-(4-methanesulfonyl-phenyl)-pyrimidine-5-carbonyl]-amino}-piperidine-1-carboxylic acid tert-butyl ester] | 75
7 | CC(C)(C)OC(=O)N1CCC(N(C(=O)c2cnc(-c3ccc(CO)cc3)nc2)C2CC2)CC1 [Example 81, 4-{Cyclopropyl-[2-(4-hydroxymethyl-phenyl)-pyrimidine-5-carbonyl]-amino}-piperidine-1-carboxylic acid tert-butyl ester] | 98
8 | COc1ncc(-c2ncc(C(=O)N(C3CC3)C3CCN(C(=O)OC(C)(C)C)CC3)cn2)cn1 [Example 82, 4-[Cyclopropyl-(2′-methoxy-[2,5′]bipyrimidinyl-5-carbonyl)-amino]-piperidine-1-carboxylic acid tert-butyl ester] | 65
9 | CC(C)(C)OC(=O)N1CCC(N(C(=O)c2cnc(-c3ccc(C#N)nc3)nc2)C2CC2)CC1 [Example 83, 4-{[2-(6-Cyano-pyridin-3-yl)-pyrimidine-5-carbonyl]-cyclopropyl-amino}-piperidine-1-carboxylic acid tert-butyl ester] | 15
10 | CC(C)(C)OC(=O)N1CCC(N(C(=O)c2cnc(-c3ccc(N4CCOCC4)cc3)nc2)C2CC2)CC1 [Example 84, 4-{Cyclopropyl-[2-(4-morpholin-4-yl-phenyl)-pyrimidine-5-carbonyl]-amino}-piperidine-1-carboxylic acid tert-butyl ester] | 140
11 | COc1cc(-c2ncc(C(=O)N(C3CC3)C3CCN(C(=O)OC(C)(C)C)CC3)cn2)ccn1 [Example 85, 4-{Cyclopropyl-[2-(2-methoxy-pyridin-4-yl)-pyrimidine-5-carbonyl]-amino}-piperidine-1-carboxylic acid tert-butyl ester] | 46
12 | CCNC(=O)c1ccc(-c2ncc(C(=O)N(C3CC3)C3CCN(C(=O)OC(C)(C)C)CC3)cn2)cc1 [Example 86, 4-{Cyclopropyl-[2-(4-ethylcarbamoyl-phenyl)-pyrimidine-5-carbonyl]-amino}-piperidine-1-carboxylic acid tert-butyl ester] | 171
13 | CC(=O)NCc1ccc(-c2ncc(C(=O)N(C3CC3)C3CCN(C(=O)OC(C)(C)C)CC3)cn2)cc1 [Example 87, 4-({2-[4-(Acetylamino-methyl)-phenyl]-pyrimidine-5-carbonyl}-cyclopropyl-amino)-piperidine-1-carboxylic acid tert-buyl ester] | 443
14 | CC(C)(C)OC(=O)N1CCC(N(C(=O)c2cnc(-c3ccc(S(N)(=O)=O)cc3)nc2)C2CC2)CC1 [Example 88, 4-{Cyclopropyl-[2-(4-sulfamoyl-phenyl)-pyrimidine-5-carbonyl]-amino}-piperidine-1-carboxylic acid tert-butyl ester] | 349
15 | Cc1ccc(-c2ncc(C(=O)N(C3CC3)C3CCN(C(=O)OC(C)(C)C)CC3)cn2)cn1 [Example 89, 4-{Cyclopropyl-[2-(6-methyl-pyridin-3-yl)-pyrimidine-5-carbonyl]-amino}-piperidine-1-carboxylic acid tert-butyl ester] | 240
16 | CC(C)(C)OC(=O)N1CCC(N(C(=O)c2cnc(-c3ccc(C#N)c(F)c3)nc2)C2CC2)CC1 [Example 90, 4-{[2-(4-Cyano-3-fluoro-phenyl)-pyrimidine-5-carbonyl]-cyclopropyl-amino}-piperidine-1-carboxylic acid tert-butyl ester] | 8
17 | CNS(=O)(=O)c1ccc(-c2ncc(C(=O)N(C3CC3)C3CCN(C(=O)OC(C)(C)C)CC3)cn2)cc1 [Example 92, 4-{Cyclopropyl-[2-(4-methanesulfamoyl-phenyl)-pyrimidine-5-carbonyl]-amino}-piperidine-1-carboxylic acid tert-butyl ester] | 151
18 | CN(C)c1ccc(-c2ncc(C(=O)N(C3CC3)C3CCN(C(=O)OC(C)(C)C)CC3)cn2)cn1 [Example 93, 4-{Cyclopropyl-[2-(6-dimethylamino-pyridin-3-yl)-pyrimidine-5-carbonyl]-amino}-piperidine-1-carboxylic acid tert-butyl ester] | 209
19 | CC(C)(C)OC(=O)N1CCC(N(C(=O)c2cnc(-n3cnc(CO)c3)nc2)C2CC2)CC1 [Example 94, 4-{Cyclopropyl-[2-(4-hydroxymethyl-imidazol-1-yl)-pyrimidine-5-carbonyl]-amino}-piperidine-1-carboxylic acid tert-butyl ester] | 349
20 | Cc1cnn(-c2ncc(C(=O)N(C3CC3)C3CCN(C(=O)OC(C)(C)C)CC3)cn2)c1 [Example 95, 4-{Cyclopropyl-[2-(4-methyl-pyrazol-1-yl)-pyrimidine-5-carbonyl]-amino}-piperidine-1-carboxylic acid tert-butyl ester] | 229
21 | Cc1ccn(-c2ncc(C(=O)N(C3CC3)C3CCN(C(=O)OC(C)(C)C)CC3)cn2)n1 [Example 96, 4-{Cyclopropyl-[2-(3-methyl-pyrazol-1-yl)-pyrimidine-5-carbonyl]-amino}-piperidine-1-carboxylic acid tert-butyl ester] | 192
22 | CCc1nccn1-c1ncc(C(=O)N(C2CC2)C2CCN(C(=O)OC(C)(C)C)CC2)cn1 [Example 97, 4-{Cyclopropyl-[2-(2-ethyl-imidazol-1-yl)-pyrimidine-5-carbonyl]-amino}-piperidine-1-carboxylic acid tert-butyl ester] | 59
23 | Cc1cn(-c2ncc(C(=O)N(C3CC3)C3CCN(C(=O)OC(C)(C)C)CC3)cn2)c(C)n1 [Example 98, 4-{Cyclopropyl-[2-(2,4-dimethyl-imidazol-1-yl)-pyrimidine-5-carbonyl]-amino}-piperidine-1-carboxylic acid tert-butyl ester] | 71
